These results are taken from US8791132B2, “Compounds and methods for treatment of hypertension” (Medivation Technologies, Inc., priority 2011, dated 2014).

Data set [1] has as its target T1, rat adrenergic α1B receptor (Rattus norvegicus, UniProt P15823).
T1 construct: rat adrenergic α1B receptor obtained from Wistar Rat liver; from tissue; host or cells: Wistar rat liver
T1 sequence (P15823 1-515): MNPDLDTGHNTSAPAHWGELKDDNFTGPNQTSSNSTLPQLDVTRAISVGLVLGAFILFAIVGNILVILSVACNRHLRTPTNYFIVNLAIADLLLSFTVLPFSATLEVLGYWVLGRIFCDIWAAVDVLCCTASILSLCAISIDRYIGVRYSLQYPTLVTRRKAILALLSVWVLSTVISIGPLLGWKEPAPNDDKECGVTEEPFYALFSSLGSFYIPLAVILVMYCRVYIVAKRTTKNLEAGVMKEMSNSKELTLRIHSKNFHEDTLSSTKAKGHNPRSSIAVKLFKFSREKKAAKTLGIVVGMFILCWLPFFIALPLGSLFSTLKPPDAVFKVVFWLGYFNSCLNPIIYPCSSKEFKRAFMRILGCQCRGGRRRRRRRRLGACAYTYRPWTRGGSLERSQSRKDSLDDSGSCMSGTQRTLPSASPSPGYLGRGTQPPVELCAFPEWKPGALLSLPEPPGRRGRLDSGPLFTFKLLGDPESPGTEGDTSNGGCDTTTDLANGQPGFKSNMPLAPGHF
Description: Radioligand binding, adrenergic α1B ([3H]Prazosin). The note with it: compound at 0.1 μM; [3H]Prazosin; repeat datapoints each shown; 0.1 µM. An outline of the steps: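 Rat α1B receptor from Wistar rat liver was incubated with 0.25 nM [3H]prazosin for 60 min at 25 °C in 50 mM Tris-HCl, pH 7.4, 0.5 mM EDTA. Non-specific binding was defined with 10 μM phentolamine. Bound radioligand was measured by filtration and counting, reported as percent inhibition of specific binding.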

For data set [2], the target named is T2, human recombinant adrenergic α2A receptor (Homo sapiens, UniProt P08913).
T2 construct: expressed in transfected cells; host or cells: insect Sf9 cells
T2 sequence (P08913 1-465): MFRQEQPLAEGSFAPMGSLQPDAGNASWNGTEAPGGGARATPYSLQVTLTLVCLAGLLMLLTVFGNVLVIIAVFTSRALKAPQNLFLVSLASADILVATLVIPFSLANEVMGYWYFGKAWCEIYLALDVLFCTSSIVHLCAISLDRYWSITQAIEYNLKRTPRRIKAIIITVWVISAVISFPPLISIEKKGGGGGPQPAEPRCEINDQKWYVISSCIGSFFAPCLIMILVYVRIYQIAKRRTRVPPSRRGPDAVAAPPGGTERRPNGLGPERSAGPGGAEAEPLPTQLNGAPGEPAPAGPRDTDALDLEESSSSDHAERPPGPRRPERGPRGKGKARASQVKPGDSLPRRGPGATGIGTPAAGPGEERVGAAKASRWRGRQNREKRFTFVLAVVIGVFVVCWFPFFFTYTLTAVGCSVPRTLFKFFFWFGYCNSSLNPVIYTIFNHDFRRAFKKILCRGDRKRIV
Description: Radioligand binding, adrenergic α2A ([3H]MK-912). Conditions: compound at 0.1 μM; [3H]MK-912; repeat datapoints each shown; 0.1 µM. Put shortly: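 Sf9 membranes, 1 nM [3H]MK-912, 60 min, 25 °C, Tris-HCl pH 7.4/MgCl2/EDTA buffer. NSB: 10 μM WB-4101. Filtration, counting; % inhibition of specific binding.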

Data set [3] addresses T3, human recombinant adrenergic α2B receptor (Homo sapiens, UniProt P18089).
T3 construct: expressed in transfected cells; host or cells: CHO-K1
T3 sequence (P18089 1-450): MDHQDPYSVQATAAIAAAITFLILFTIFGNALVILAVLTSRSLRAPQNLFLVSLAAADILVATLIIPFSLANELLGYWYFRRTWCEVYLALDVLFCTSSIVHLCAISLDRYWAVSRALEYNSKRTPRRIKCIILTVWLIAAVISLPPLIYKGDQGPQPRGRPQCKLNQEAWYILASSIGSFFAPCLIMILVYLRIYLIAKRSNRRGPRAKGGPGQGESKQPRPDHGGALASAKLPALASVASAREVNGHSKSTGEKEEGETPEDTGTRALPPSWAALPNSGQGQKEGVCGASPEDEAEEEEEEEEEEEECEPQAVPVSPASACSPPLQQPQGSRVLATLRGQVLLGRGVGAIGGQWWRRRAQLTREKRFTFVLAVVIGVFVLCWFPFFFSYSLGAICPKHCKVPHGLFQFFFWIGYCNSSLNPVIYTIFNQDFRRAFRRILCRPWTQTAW
Nature of the data set: Radioligand binding, adrenergic α2B ([3H]Rauwolscine). Conditions: compound at 0.03 μM; [3H]Rauwolscine; repeat datapoints each shown; 0.03 µM. An outline of the steps:
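Assay used CHO-K1-expressed human α2B receptor in Tris-HCl pH 7.4 buffer with MgCl2, EDTA and BSA; 60 min incubation at 25 °C.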

The nature of data set [4]: Solubility in MeOH (chiral preparative HPLC data). It is filed as physicochemical. Conditions: sample for chiral preparative HPLC. How it is done:
For chiral separations, samples were dissolved in MeOH and EtOH according to the solubility of sample and filtered through 0.22μ. PTFE filters. The columns used were […]-AD; 20*250 mm, 10μ and […]-ODH; 20*250 mm, 5μ. A flow rate of 12 mL/min-17 mL/min was used according to the resolution. Alkanes such as n-Pentane, Hexane and Heptane (40%-95%) and alcohols such as EtOH, Isopropyl alcohol and t-Butanol (5%-60%) were used as mobile phase. In some cases alcohol combinations i.e. (EtOH+MeOH), (EtOH+IPA), (IPA+MeOH), (t-Butanol+MeOH), (t-Butanol+EtOH) were used instead of a single alcohol. Diethyl amine (up to 0.3%) was used as modifier in the mobile phase.
Column: Chiralcel OD-H. Column ID: 20*250 mm, 5μ. Mobile Phase:Hexane: (EtOH:MeOH 80:20)−95:5. Flow rate: 15 mL/min. Solubility: 30 mg/mL in MeOH.
Column: Chiral PAK-AD-H. Column ID: 20*250 mm, 5μ. Mobile Phase:Hexane (0.2% diethylamine):Isopropanol−93:7. Flow rate: 15 mL/min. Solubility: 40 mg/mL in MeOH.

Data set [5] relates to SH-SY5Y cells over-expressing α-syn. Nature of the data set: Cell viability (MTS reduction) in SH-SY5Y cells over-expressing α-synuclein. It is filed as cell-based. Conditions: Homo sapiens, 336 h, α-syn over-expression (−dox), +dox control = 100, 14 days, read-out: Relative cell viability protection. How it is done: Cell Culture. SH-SY5Y cells stably transfected with a doxycyline-inducible wild-type α-synuclein (α-syn) gene along with control SH-SY5Y cells over-expressing the β-galactosidase (β-gal) gene (a gift from L. Stefanis, Division of Basic Neurosciences, Biomedical Research Foundation of the Academy of Athens, Athens, Greece) are cultured as described by Vekrellis et al. (Vekrellis K, Xilouri M, Emmanouilidou E, Stefanis L. (2009). Inducible over-expression of α-syn in human neuronal cells leads to caspase-dependent non-apoptotic death. J Neurochem 109, 1348-1362). In accordance with this method, cells are cultured and maintained in RPMI 1640, 10% fetal bovine serum supplemented with 250 μg/mL G418 and 50 μg/mL Hygromycin B. Expression of α-syn is switched off in stock cultures with doxycycline (2 μg/mL). For experimental procedures, cells are plated at (4−8×10^4 cells/cm^2) and differentiated in absence of doxycycline and in the presence of 20 μM all-trans retinoic acid (RA) (Sigma, St Louis, Mo., USA).
Viability Assay: Cells are cultured in 96-well plates. After 24 h, cells are treated with RA and Compounds of Invention at 0.1 and 10 nM in the absence of doxycyline. Culture medium with RA and drugs is fully replaced after 7 days. Cell viability is measured by the release of lactate dehydrogenase (LDH) from necrotic cells into the culture medium and by measuring the capacity of cells to metabolize MTS tetrazolium (MTS) after 14 days in culture. LDH leakage is assessed according to the Cytotoxicity Detection KitPlus (Roche, Mannheim, Germany) and MTS reduction is assessed by the CellTiter 96® AQueous One Solution Cell Proliferation assay (Promega Corporation, Madison, Wis., USA).
Assay results for the experiments with α-syn over-expression are presented as the MTS reduction capacity (cell viability) of control cells (+dox), cells over-expressing α-syn (−dox), and cells over-expressing α-syn incubated with Compounds of the Invention at 0.1 nM (FIG. 18A) or 10 nM (FIG. 18B).

For data set [6], the system named is SH-SY5Y cells. Nature of the data set: Cell viability (MTS reduction) in 4-Br-A23187-treated SH-SY5Y cells. Type of data set: cell-based. The note with it: MTS reduction capacity; 4-Br-A23187 2 μM, 24 h; compounds at 10 nM. How it is done: (§1) After 24 h, cells were depleted from FBS and kept in culture for 24 h before the experiment. Cells were then treated with 4-Br-A23187 (2 μM), hydrogen peroxide (300 μM) or the mitochondrial toxin rotenone (25 μM) in the presence of vehicle or Compound of the Invention for 24 h. Cell death was determined by measurements of LDH release according to the Cytotoxicity Detection KitPlus (Roche, Mannheim, Germany). Cell viability was determined by measuring the capacity of cells to metabolize MTS tetrazolium (MTS) according to the Cytotoxicity Detection KitPlus (Roche, Mannheim, Germany) and MTS reduction is assessed by the CellTiter 96® AQueous One Solution Cell Proliferation assay (Promega Corporation, Madison, Wis., USA). Compounds were screened at 10 nM, using DMSO as vehicle. Assay results for the experiments with hydrogen peroxide are presented as the LDH release (cell death) of untreated cells (control), hydrogen peroxide-treated cells (vehicle), and co-incubation of hydrogen peroxide with Compounds of the Invention treated cells normalized to the vehicle (FIG. 17A). This assay assesses the ability of the test compounds to protect against cell death that is mediated by mitochondrial dysfunction. In the assay, the calcium ionophore 4-Br-A23187 is used to challenge the cells, causing calcium levels to rise in mitochondria, which leads to depolarization and cell death. Test compounds are assessed for their ability to prevent cell death in response to challenge with 4-Br-A23187.

The subject of data set [7] is SH-SY5Y cells. Nature of the data set: Cell death (LDH release) in hydrogen peroxide-treated SH-SY5Y cells. Type of data set: cell-based. Conditions: LDH release normalized to vehicle (=100); hydrogen peroxide 300 μM, 24 h; compounds at 10 nM. As to the method: as §1, with “SH-SY5Y cells cultured in DMEM/F12 media supplemented with 10% FBS were seeded in 96-well microplates at 150,000 cells/cm^2. After” for “After”

SMILES strings stand for the structures.

Regarding `Cc1cnc2c(c1)c1c(n2CC(C)(O)c2ccc(F)cc2)CCN(C)C1` (single isomer, unassigned) [138a], in data set [1], the “Percentage inhibition of ligand binding, Adrenergic α1B (0.1 μM)” value was found to be 61%. For the same compound, the “Percentage inhibition of ligand binding, Adrenergic α2A (0.1 μM)” value in data set [2] is −8%. The “Percentage inhibition of ligand binding, Adrenergic α2B (0.03 μM)” value in data set [3] is given as 63%. For the same compound, the Solubility in data set [4] was determined as 30 mg/mL.

As for `Cc1cnc2c(c1)c1c(n2CC(C)(O)c2ccc(F)cc2)CCN(C)C1` (single isomer, unassigned) [138b], the “Percentage inhibition of ligand binding, Adrenergic α1B (0.1 μM)” value in data set [1] came to 22%. For the same compound, the “Percentage inhibition of ligand binding, Adrenergic α2A (0.1 μM)” value in data set [2] came out at 4%. Also, in data set [3], the “Percentage inhibition of ligand binding, Adrenergic α2B (0.03 μM)” value was 25%. Moreover, in data set [4], the Solubility was 30 mg/mL.

Turning to `Cc1ccc2c(c1)c1c(n2CCc2ccc(C)nc2)CCN(C)C1` [Dimebon (DMB), dimebon, reference compound], the viability at 0.0001 µM in data set [5] (compounds at 0.1 nM) came out at 70.5%. Moreover, the viability at 0.01 µM in data set [5] (compounds at 10 nM) was found to be 85.7%. The “Relative cell viability protection” value in the data set with SH-SY5Y cells [6] turned out to be 0.3538. The “LDH release (cell death), relative to vehicle” value with SH-SY5Y cells [7] was 91.15.
